Results as given in patent US7507761B2, “Benzopyran derivatives, method of production and use thereof” (Universite de Liege, priority 2004, dated 2009).
Read-outs that look alike come from different tables or passages of the source.

Assays:
rat pancreatic islets [1] = assay: Insulin release from incubated rat pancreatic islets; assay type: cell-based; conditions: 10 μM compound, 16.7 mM glucose, % of control without drug; mean ± s.e.m. (n)
Procedure: Measurement of insulin release from incubated rat pancreatic islets was performed according to the following procedure.
Experiments were performed with pancreatic islets isolated from adult fed Wistar rats (Charles River Laboratories, Belgium).
Groups of 10 islets, each derived from the same batch of islets, were preincubated for 30 minutes at 37° C. in 1 mL of a physiological salt medium (in mM: NaCl 115, KCl 5, CaCl2 2.56, MgCl2 1, NaHCO3 24) supplemented with 2.8 mM glucose, 0.5% (w:v) dialyzed albumin (Sigma) and equilibrated against a mixture of O2 (95%) and CO2 (5%). The islets were then incubated at 37° C. for 90 minutes in 1 mL of the same medium containing 16.7 mM glucose and, in addition, the required benzopyran derivative.
The release of insulin was measured radioimmunologically according to Leclercq-Meyer et al., Endocrinology, 1985, 116, 1168-1174 using rat insulin as a standard.
Residual insulin secretion was expressed as a percentage of the value recorded in control experiments (100%); i.e. in the absence of drug and presence of 16.7 mM glucose. Measurement of 86Rb outflow from perifused rat pancreatic islets was performed according to the following procedure. Groups of 100 islets were incubated for 60 min in a medium containing 16.7 mM glucose and 86Rb (0.15-0.25 mM; 50 μCi/ml). After incubation, the islets were washed three times and then placed in a perifusion chamber. The perifusate was delivered at a constant rate (1.0 ml/min). From the 31st to the 90th min, the effluent was continuously collected over successive periods of 1 min each. An aliquot of the effluent (0.6 ml) was used for scintillation counting. At the end of the perifusion, the radioactive content of the islets was determined. The outflow of 86Rb (cpm/min) was expressed as a fractional outflow rate (% of instantaneous islet content/min; FOR).

rat pancreatic islets [2] = conditions: cited from earlier work; for Residual insulin secretion (%) [10 μM]: 10 μM compound, published results (footnotes b, c)
rat aorta rings = assay: Measurement of tension in rat aorta rings (myorelaxant activity); assay type: cell-based; conditions: KCl-contracted rat aorta rings; concentration evoking 50% inhibition of plateau phase; mean ± s.e.m. (n); read-out: Myorelaxant activity ED50
Procedure: Measurement of tension in rat aorta rings was performed according to the following procedure.
Experiments were performed with aorta removed from adult fed Wistar rats (Charles River Laboratories, Belgium).
A section of the thoracic aorta was cleared of adhering fat and connective tissue and was cut into transverse rings (3-4 mm long). The endothelium was removed and the segments suspended under 1.5 g tension in an organ bath containing 20 mL of a physiological solution (in mM: NaCl 118, KCl 4.7, CaCl2 2.5, NaHCO3 25, KH2PO4 1.2, MgSO4 1.2, glucose 5). The physiological solution was maintained at 37° C. and continuously bubbled with a mixture of O2 (95%) and CO2 (5%). Isometric contractions were measured with a force-displacement transducer. After 60 minutes of equilibration, the rings were exposed to KCl (30 or 80 mM). When the tension had stabilized, the chroman derivative was added to the bath at increasing concentrations until maximal relaxation (or until 300 µM). Some experiments were repeated in the continuous presence of 1 or 10 µM glibenclamide in the bathing medium.
The relaxation response was expressed as the percentage of the contractile response to KCl. The ED50 values (concentration evoking 50% inhibition of the plateau phase induced by KCl) were assessed from dose-response curves using Datanalyst software (EMKA Technologies, France).

Row | Compound | Residual insulin secretion (%) [10 μM] (rat pancreatic islets [1]) | also measured
1 | CC1(C)Oc2ccc(C#N)cc2C(N2CCCC2=O)C1O (stereo not drawn) [Cromakalim, cromakalim] | 94.7 ± 4.3 (24) % | Activity as an inhibitor of insulin secretion (in words) (rat pancreatic islets [2]; background statement, reflects poor activity as PCO on pancreatic KATP channels): poorly active; EC50 (rat aorta rings): 130 ± 10 nM
2 | CC1=NS(=O)(=O)c2cc(Cl)ccc2N1 [Diazoxide, diazoxide] | – | Residual insulin secretion (%) [10 μM] (rat pancreatic islets [2]): 71.7 ± 2.8 (38)^b %
3 | Cc1cccc(NC(=S)NC2CC(C)(C)Oc3ccc(F)cc32)c1 (stereo not drawn) [Example 4, R/S-3,4-Dihydro-2,2-dimethyl-6-fluoro-4-(3-methylphenylaminothiocarbonylamino)-2H-1-benzopyran] | 53.1 ± 3.6% | –
4 | Cc1ccc(NC(=S)NC2CC(C)(C)Oc3ccc(Cl)cc32)cc1 (stereo not drawn) [Example 8, R/S-6-Chloro-3,4-dihydro-2,2-dimethyl-4-(4-methylphenylaminothiocarbonylamino)-2H-1-benzopyran] | 32.8 ± 1.9% | –
5 | COc1cccc(NC(=S)NC2CC(C)(C)Oc3ccc(F)cc32)c1 (stereo not drawn) [Example 22, R/S-3,4-Dihydro-2,2-dimethyl-6-fluoro-4-(3-methoxyphenylaminothiocarbonylamino)-2H-1-benzopyran] | 52.0 ± 2.3% | –
6 | CC1(C)CC(NC(=S)Nc2cccnc2)c2cc(Br)ccc2O1 (stereo not drawn) [Example 42, R/S-6-Bromo-3,4-dihydro-2,2-dimethyl-4-(3-pyridylaminothiocarbonylamino)-2H-1-benzopyran] | 44.3 ± 2.8% | –
7 | CC1(C)CC(NC(=O)Nc2cccc(Cl)c2)c2cc(F)ccc2O1 (stereo not drawn) [Example 77, R/S-4-(3-Chlorophenylaminocarbonylamino)-3,4-dihydro-2,2-dimethyl-6-fluoro-2H-1-benzopyran] | 28.0 ± 1.5% | –
8 | CC1(C)CC(NC(=O)Nc2ccc(Cl)cc2)c2cc(Br)ccc2O1 (stereo not drawn) [Example 82, R/S-6-Bromo-4-(4-chlorophenylaminocarbonylamino)-3,4-dihydro-2,2-dimethyl-2H-1-benzopyran] | 25.7 ± 1.5% | –
9 | CC(N/C(=N\C#N)Nc1ccncc1)C(C)(C)C (stereo not drawn) [Pinacidil, pinacidil] | – | Residual insulin secretion (%) [10 μM] (rat pancreatic islets [2]): 96.0 ± 4.2 (20)^c %; EC50 (rat aorta rings): 350 ± 20 nM
